pKi: −log10 of the molar value.
Assays:
[1] = target: T1, hM2 muscarinic receptor subtype (Homo sapiens, UniProt P08172); assay: Radioligand binding assay ([3H]NMS displacement), hM2; conditions: [3H]NMS at 1 nM; membranes of CHO cells expressing hM2
T1 construct: expressed in transfected cells; membrane preparation
T1 sequence (P08172 1-466): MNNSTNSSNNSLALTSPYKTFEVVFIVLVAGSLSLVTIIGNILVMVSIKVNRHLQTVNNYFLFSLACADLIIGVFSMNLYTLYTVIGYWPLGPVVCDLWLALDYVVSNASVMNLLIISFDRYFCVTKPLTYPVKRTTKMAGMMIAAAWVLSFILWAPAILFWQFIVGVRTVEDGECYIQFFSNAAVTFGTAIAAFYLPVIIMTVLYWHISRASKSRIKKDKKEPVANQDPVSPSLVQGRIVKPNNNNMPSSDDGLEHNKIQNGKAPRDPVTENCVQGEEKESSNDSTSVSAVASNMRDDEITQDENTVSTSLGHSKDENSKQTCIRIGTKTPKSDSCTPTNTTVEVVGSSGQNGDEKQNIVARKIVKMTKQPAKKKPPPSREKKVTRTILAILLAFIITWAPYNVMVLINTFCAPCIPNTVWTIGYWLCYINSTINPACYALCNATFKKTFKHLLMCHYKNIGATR
Experimental: (§1) A. Membrane Preparation from Cells Expressing hM1, hM2, hM3 and hM4 Muscarnic Receptor Subtypes
(§2) CHO (Chinese hamster ovary) cell lines stably expressing cloned human hM1, hM2, hM3 and hM4 muscarinic receptor subtypes, respectively, were grown to near confluency in medium consisting of HAM's F-12 supplemented with 10% FBS (Fetal Bovine Serum) and 250 μg/mL Geneticin. The cells were grown in a 5% CO2, 37° C. incubator and lifted with dPBS+2 mM EDTA. Cells were collected by 5 minute centrifugation at 650×g, and cell pellets were either stored frozen at −80° C. or membranes were prepared immediately. […] Protein concentration of the membrane suspension was determined by the method of Lowry, O. et al., (1951) Journal of Biochemistry: 193, 265. […]
(§3) Radioligand binding assays were performed in 96-well microtiter plates in a total assay volume of 100 μL. […] Filter plates were rinsed three times with wash buffer (10 mM HEPES) to remove unbound radioactivity. […] The plates were then counted in a PerkinElmer Topcount liquid scintillation counter (PerkinElmer Inc., Wellesley, Mass.). Binding data were analyzed by nonlinear regression analysis with the GraphPad Prism Software package (GraphPad Software, Inc., San Diego, Calif.) using the one-site competition model. […]

hM2 receptor = target: T2, hM2 receptor (Homo sapiens, UniProt P08172); assay: Blockade of agonist-mediated GTPγ[35S] binding; assay type: biochemical; conditions: CHO-K1 cell membranes expressing hM2; carbachol at EC90
T2 construct: expressed in transfected cells; membrane preparation
T2 sequence (P08172 1-466): T1 sequence (P08172 1-466)
Experimental: A. Blockade of Agonist-Mediated GTPγ[^35S] Binding
In this assay, the functional potency of a test compound was determined by measuring the ability of the test compound to block carbachol-stimulated GTPγ[^35S] binding in CHO-K1 cells expressing the hM2 receptor.
CHO-K1 cells stably expressing the hM2 muscarinic receptor were grown in medium consisting of Hams F-12 media supplemented with 10% Fetal Bovine Serum and 500 μg/ml of Geneticin (G-418). Cells were incubated in a 5% CO2, humidified incubator at 37° C. Cells were grown to confluence and harvested with dPBS+2 mM EDTA and pelleted by centrifugation at 250×g for 10 minutes.
Cells from the centrifuged pellets were resuspended in homogenization buffer (10 mM HEPES, 10 mM EDTA, pH 7 at 4° C.). […]
To determine the ability of a test compound to inhibit carbachol-stimulated GTPγ[^35S] binding, the following was added to each well of 96 well plates: 25 μL of assay buffer with GTPγ[^35S] and GDP, 25 μL of diluted test compound (prepared as described above), and 25 μL CHO cell membranes expressing the hM2 receptor. […] After the pre-incubation period, 25 μL of carbachol at the final concentration of its EC90 value determined earlier in the day was added to each plate. […]
Test compound potency (IC50) was determined using iterative curve fitting (GraphPad Prism 3.0 software; single site competition curve). […]

[2] = target: T3, hM3 muscarinic receptor subtype (Homo sapiens, UniProt P20309); assay: Radioligand binding assay ([3H]NMS displacement), hM3; conditions: ratio of Ki values
T3 construct: expressed in transfected cells; membrane preparation
T3 sequence (P20309 whole entry): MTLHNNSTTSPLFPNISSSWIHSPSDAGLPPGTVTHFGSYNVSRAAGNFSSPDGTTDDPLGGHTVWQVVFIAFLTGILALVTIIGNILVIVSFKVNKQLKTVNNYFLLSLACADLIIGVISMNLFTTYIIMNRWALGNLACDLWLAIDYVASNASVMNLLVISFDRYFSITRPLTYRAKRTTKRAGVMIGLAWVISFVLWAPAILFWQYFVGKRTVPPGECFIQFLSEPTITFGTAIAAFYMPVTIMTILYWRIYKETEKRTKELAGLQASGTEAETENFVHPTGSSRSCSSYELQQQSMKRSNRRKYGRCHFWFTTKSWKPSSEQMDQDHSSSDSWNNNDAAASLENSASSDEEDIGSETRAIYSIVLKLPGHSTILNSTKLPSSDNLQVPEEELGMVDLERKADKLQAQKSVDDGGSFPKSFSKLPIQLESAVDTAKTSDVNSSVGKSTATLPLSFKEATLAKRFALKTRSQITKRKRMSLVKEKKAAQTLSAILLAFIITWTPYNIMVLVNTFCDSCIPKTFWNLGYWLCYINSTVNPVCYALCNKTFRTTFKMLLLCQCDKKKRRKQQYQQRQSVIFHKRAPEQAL
Experimental: as §1, §2, §3

[3] = system: oxotremorine-induced salivation; assay: In vivo rat salivation assay; conditions: for ID50 bladder/salivation selectivity ratio: comparison of ID50 values of rat bladder assay and rat salivation assay
Experimental: Female Sprague-Dawley rats weighing 200 to 300 g were anesthetized with urethane (1.5 g/kg, s.c., Sigma, St. Louis, Mo.), with a supplement of 0.25 g/kg, s.c. urethane as needed. Urethane was administered at a concentration of 0.25 g/mL.
Rats were placed on a heated blanket on their dorsal side in an inclined position (20° angle) position (head down). A swab was placed in the rat's mouth. The test compound or vehicle was administered intravenously via the tail vein. After 5 min., oxotremorine (1.0 mg/kg) was administered subcutaneously. The swab was discarded and replaced by a pre-weighed swab. Saliva was then collected for 10 min. and then the swab was removed and re-weighed to determine the output of saliva. Dose-response curves were fitted with a four parameter logistic equation to obtain estimates of ID50 (dose required to produce 50% of the maximal response).
By comparing the ID50 values determined in the rat bladder assay and rat salivation assay, the in vivo bladder/salivation selectivity ratio was calculated for the compounds tested.

[4] = system: volume-induced bladder contraction amplitude (VIBCAmp); assay: In vivo rat bladder assay; conditions: anesthetized female Sprague-Dawley rats; intravenous; normalized to atropine response
Experimental: Female Sprague-Dawley rats (Harlan, Indianapolis, Ind.) weighing 200 to 300 g were anesthetized with urethane (1.5 g/kg, s.c., Sigma, St. Louis, Mo.), with a supplement of 0.25 g/kg, s.c. urethane as needed. Urethane was administered at a concentration of 0.25 g/mL.
Rats were prepared for surgery by shaving the neck and abdomen and cleansing with ethanol wipes. First, an incision was made on the ventral surface. An intravenous catheter was placed by isolating and ligating the femoral vein. […]
Thereafter, an intravenous dose of the test compound was administered and changes in VIBCAmp were recorded for 15 minutes. Atropine (0.1 mg/kg) was then administered intravenously (1 mL/kg) as a positive control and VIBCAmp and data was recorded for an additional 15 minutes. […]
Alternatively, after the vehicle, increasing cumulative intravenous doses of the test compound were administered at 15 minute intervals (1 mL/kg) and changes in VIBCAmp were recorded for 15 minutes. […]
The average VIBCAmp during the 5-15 minute period after test compound and atropine was determined and subtracted from the average VIBCAmp during the 5-15 minute post-vehicle period to obtain the test compound or atropine-induced change in VIBCAmp. […]

Row | SMILES | pKi [1] | pKi (hM2 receptor) | hM3/hM2 ratio [2] | ID50 (rat salivation assay) ([3]; anesthetized female Sprague-Dawley rats, intravenous, oxotremorine 1.0 mg/kg s.c.) | ID50 bladder/salivation selectivity ratio [3] | ID50 (rat bladder assay) [4]
1 | COc1cccc(OC)c1CN1CCC(N(C)CCCCOCCCCN2CC[C@@H](C(C(N)=O)(c3ccccc3)c3ccccc3)C2)CC1 [Example 4] | > 7.70 | > 8.00 | greater than or equal to 5 | greater than or equal to 1 mg/kg | greater than 10 | less than or equal to 0.1 mg/kg
2 | CCN(CC)CC#CCOC(=O)C(O)(c1ccccc1)C1CCCCC1 (centres unmarked) [oxybutynin, reference compound] |  |  |  |  | about 1.4 | 
3 | Cc1ccc(O)c([C@H](CCN(C(C)C)C(C)C)c2ccccc2)c1 [tolterodine, reference compound] |  |  |  |  | ~4.8 | 

Reference: patent US8080565B2, “Substituted 4-amino-benzylpiperidine compounds” (Theravance, Inc., priority 2003, dated 2011)
